Measurements as given in US10266537B2, “3-acetylenyl-pyrazole-pyrimidine derivative, and preparation method therefor and uses thereof” (Si Chuan University, priority 2015, dated 2019).
pIC50: −log10 of the molar value. Blank lines part the entries; values can stand above or below the molecule they belong to.

Columns and labels:
HBL-1 = assay: cells; settings: Homo sapiens, HBL1, 72 h, read-out: Proliferation inhibitory activity IC50
FGFR4(h) = FGFR4(h) (Homo sapiens (Human), UniProt P22455); assay: Kinase inhibition assay (KinaseProfiler, 33P-ATP); assay type: biochemical; settings: read-out: The percentage of the remaining active protein
SAPK2a = SAPK2a (Homo sapiens (Human), UniProt Q16539); assay: Kinase inhibition assay (KinaseProfiler, 33P-ATP); assay type: biochemical; settings: SAPK2a(h), read-out: The percentage of the remaining active protein
[1] = target: PI3 Kinase (p110b/p85a)(h) (Homo sapiens (Human), UniProt P42338); assay: Kinase inhibition assay (KinaseProfiler, 33P-ATP); assay type: biochemical; settings: read-out: The percentage of the remaining active protein
Aurora-A(h) = Aurora-A(h) (Homo sapiens (Human), UniProt O14965); assay: Kinase inhibition assay (KinaseProfiler, 33P-ATP); assay type: biochemical; settings: read-out: The percentage of the remaining active protein
Met(Y1248C)(h) = Met(Y1248C)(h) (Homo sapiens (Human), UniProt P08581, Y1248C); assay: Kinase inhibition assay (KinaseProfiler, 33P-ATP); assay type: biochemical; settings: read-out: The percentage of the remaining active protein
PIP5K1a(h) = PIP5K1a(h) (Homo sapiens (Human), UniProt Q99755); assay: Kinase inhibition assay (KinaseProfiler, 33P-ATP); assay type: biochemical; settings: read-out: The percentage of the remaining active protein
Ret (V804L)(h) = Ret (V804L)(h) (Homo sapiens (Human), UniProt P07949, V804L); assay: Kinase inhibition assay (KinaseProfiler, 33P-ATP); assay type: biochemical; settings: read-out: The percentage of the remaining active protein
Chain of Ret (V804L)(h) (P07949 29-1114 V804L): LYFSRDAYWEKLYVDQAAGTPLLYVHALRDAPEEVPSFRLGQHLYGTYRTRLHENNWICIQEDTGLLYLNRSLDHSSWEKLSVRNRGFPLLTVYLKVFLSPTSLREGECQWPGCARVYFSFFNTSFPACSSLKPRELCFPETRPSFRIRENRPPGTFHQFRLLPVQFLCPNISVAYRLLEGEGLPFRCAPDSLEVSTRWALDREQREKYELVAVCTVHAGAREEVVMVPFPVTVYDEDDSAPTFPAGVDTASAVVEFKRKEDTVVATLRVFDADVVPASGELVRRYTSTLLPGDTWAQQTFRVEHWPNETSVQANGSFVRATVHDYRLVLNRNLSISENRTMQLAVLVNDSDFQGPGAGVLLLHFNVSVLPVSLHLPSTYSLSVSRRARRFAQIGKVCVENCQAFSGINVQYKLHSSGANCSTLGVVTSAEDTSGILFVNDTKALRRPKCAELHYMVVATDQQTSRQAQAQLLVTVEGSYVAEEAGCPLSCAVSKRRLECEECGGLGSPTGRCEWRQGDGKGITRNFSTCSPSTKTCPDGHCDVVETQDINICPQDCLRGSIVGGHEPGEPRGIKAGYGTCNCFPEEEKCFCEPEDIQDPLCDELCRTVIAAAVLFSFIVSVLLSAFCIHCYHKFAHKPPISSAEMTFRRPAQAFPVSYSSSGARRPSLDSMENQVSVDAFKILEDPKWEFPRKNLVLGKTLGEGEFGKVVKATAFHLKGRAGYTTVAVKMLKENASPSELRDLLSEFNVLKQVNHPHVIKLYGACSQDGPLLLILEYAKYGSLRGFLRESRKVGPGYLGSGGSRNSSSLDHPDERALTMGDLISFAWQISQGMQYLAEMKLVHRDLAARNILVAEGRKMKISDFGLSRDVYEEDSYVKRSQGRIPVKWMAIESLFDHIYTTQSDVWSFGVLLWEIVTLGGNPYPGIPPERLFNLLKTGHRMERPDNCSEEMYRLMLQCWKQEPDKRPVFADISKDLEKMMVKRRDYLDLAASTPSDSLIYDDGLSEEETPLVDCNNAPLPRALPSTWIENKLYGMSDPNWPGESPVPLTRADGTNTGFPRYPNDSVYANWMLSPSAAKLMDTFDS

Wee1(h) = Wee1(h) (Homo sapiens (Human), UniProt P30291); assay: Kinase inhibition assay (KinaseProfiler, 33P-ATP); assay type: biochemical; settings: read-out: The percentage of the remaining active protein
CK2(h) = CK2(h) (Homo sapiens (Human), UniProt P68400); assay: Kinase inhibition assay (KinaseProfiler, 33P-ATP); assay type: biochemical; settings: read-out: The percentage of the remaining active protein
EphA5 = EphA5 (Homo sapiens (Human), UniProt P54756); assay: Kinase inhibition assay (KinaseProfiler, 33P-ATP); assay type: biochemical; settings: EphA5(h), read-out: The percentage of the remaining active protein
MST3(h) = MST3(h) (Homo sapiens (Human), UniProt Q9Y6E0); assay: Kinase inhibition assay (KinaseProfiler, 33P-ATP); assay type: biochemical; settings: read-out: The percentage of the remaining active protein
Fgr = Fgr (Homo sapiens (Human), UniProt P09769); assay: Kinase inhibition assay (KinaseProfiler, 33P-ATP); assay type: biochemical; settings: Fgr(h), read-out: The percentage of the remaining active protein
Abl (Q252H)(h) = Abl (Q252H)(h) (Homo sapiens (Human), UniProt P00519, Q252H); assay: Kinase inhibition assay (KinaseProfiler, 33P-ATP); assay type: biochemical; settings: read-out: The percentage of the remaining active protein
Hck = Hck (Homo sapiens (Human), UniProt P08631); assay: Kinase inhibition assay (KinaseProfiler, 33P-ATP); assay type: biochemical; settings: Hck(h); 10 μM; read-out: The percentage of the remaining active protein
Chain of Hck (P08631 whole entry): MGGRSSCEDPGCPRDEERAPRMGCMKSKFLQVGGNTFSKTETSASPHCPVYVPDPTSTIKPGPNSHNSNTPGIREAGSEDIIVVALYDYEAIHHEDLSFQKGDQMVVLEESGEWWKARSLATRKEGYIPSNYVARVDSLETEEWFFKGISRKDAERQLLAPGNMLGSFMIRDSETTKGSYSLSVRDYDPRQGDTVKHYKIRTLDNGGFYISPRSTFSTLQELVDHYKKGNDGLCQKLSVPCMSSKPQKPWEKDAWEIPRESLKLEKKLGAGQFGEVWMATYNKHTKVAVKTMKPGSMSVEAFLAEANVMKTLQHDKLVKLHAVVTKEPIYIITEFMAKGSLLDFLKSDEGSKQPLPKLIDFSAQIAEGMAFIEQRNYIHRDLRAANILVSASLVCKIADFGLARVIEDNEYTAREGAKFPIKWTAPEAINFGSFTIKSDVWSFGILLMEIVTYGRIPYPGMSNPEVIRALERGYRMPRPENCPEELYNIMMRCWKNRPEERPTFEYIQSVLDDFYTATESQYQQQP

CDK2/cyclinE(h) = CDK2/cyclinE(h) (Homo sapiens (Human), UniProt P24941); assay: Kinase inhibition assay (KinaseProfiler, 33P-ATP); assay type: biochemical; settings: read-out: The percentage of the remaining active protein
MARK1(h) = MARK1(h) (Homo sapiens (Human), UniProt Q9P0L2); assay: Kinase inhibition assay (KinaseProfiler, 33P-ATP); assay type: biochemical; settings: read-out: The percentage of the remaining active protein
Chain of MARK1(h) (Q9P0L2 whole entry): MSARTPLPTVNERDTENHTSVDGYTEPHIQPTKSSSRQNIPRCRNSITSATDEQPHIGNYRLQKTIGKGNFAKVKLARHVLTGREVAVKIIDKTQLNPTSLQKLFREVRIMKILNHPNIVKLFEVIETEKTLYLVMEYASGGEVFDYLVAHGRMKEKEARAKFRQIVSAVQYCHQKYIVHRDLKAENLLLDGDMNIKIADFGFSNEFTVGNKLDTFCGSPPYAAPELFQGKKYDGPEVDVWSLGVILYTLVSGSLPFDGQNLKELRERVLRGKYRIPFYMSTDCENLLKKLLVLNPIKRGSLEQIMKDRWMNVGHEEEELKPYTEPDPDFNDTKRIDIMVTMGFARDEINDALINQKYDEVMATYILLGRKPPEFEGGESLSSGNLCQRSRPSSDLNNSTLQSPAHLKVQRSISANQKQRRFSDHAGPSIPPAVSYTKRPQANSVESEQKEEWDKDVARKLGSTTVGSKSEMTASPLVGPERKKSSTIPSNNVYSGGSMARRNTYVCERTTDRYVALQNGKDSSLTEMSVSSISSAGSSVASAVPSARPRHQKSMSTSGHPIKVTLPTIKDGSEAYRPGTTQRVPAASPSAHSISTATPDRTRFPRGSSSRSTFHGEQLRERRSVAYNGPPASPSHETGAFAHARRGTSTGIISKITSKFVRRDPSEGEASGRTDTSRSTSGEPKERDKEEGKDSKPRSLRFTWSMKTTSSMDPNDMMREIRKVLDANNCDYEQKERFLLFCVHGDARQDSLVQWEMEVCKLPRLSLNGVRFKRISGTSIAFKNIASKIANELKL

ASK1(h) = ASK1(h) (Homo sapiens (Human), UniProt Q99683); assay: Kinase inhibition assay (KinaseProfiler, 33P-ATP); assay type: biochemical; settings: read-out: The percentage of the remaining active protein
GCK(h) = GCK(h) (Homo sapiens (Human), UniProt Q12851); assay: Kinase inhibition assay (KinaseProfiler, 33P-ATP); assay type: biochemical; settings: read-out: The percentage of the remaining active protein
AMPKα2(h) = AMPKα2(h) (Homo sapiens (Human), UniProt P54646); assay: Kinase inhibition assay (KinaseProfiler, 33P-ATP); assay type: biochemical; settings: read-out: The percentage of the remaining active protein
[2] = target: PI3 Kinase (p110a(H1047R)/p85a)(h) (Homo sapiens (Human), UniProt P42336, H1047R); assay: Kinase inhibition assay (KinaseProfiler, 33P-ATP); assay type: biochemical; settings: read-out: The percentage of the remaining active protein
LKB1(h) = LKB1(h) (Homo sapiens (Human), UniProt Q15831); assay: Kinase inhibition assay (KinaseProfiler, 33P-ATP); assay type: biochemical; settings: read-out: The percentage of the remaining active protein
DU145 = assay: Cell proliferation inhibition assay (MTT); assay type: cell-based; settings: Homo sapiens, DU-145, 72 hours, read-out: Proliferation inhibitory activity IC50
CaMKIIβ(h) = CaMKIIβ(h) (Homo sapiens (Human), UniProt Q13554); assay: Kinase inhibition assay (KinaseProfiler, 33P-ATP); assay type: biochemical; settings: read-out: The percentage of the remaining active protein
TSSK2(h) = TSSK2(h) (Homo sapiens (Human), UniProt Q96PF2); assay: Kinase inhibition assay (KinaseProfiler, 33P-ATP); assay type: biochemical; settings: read-out: The percentage of the remaining active protein
PKCζ(h) = PKCζ(h) (Homo sapiens (Human), UniProt Q05513); assay: Kinase inhibition assay (KinaseProfiler, 33P-ATP); assay type: biochemical; settings: read-out: The percentage of the remaining active protein
PKCβII(h) = PKCβII(h) (Homo sapiens (Human), UniProt P05771); assay: Kinase inhibition assay (KinaseProfiler, 33P-ATP); assay type: biochemical; settings: read-out: The percentage of the remaining active protein
PDGFRα (V561D) = PDGFRα (V561D) (Homo sapiens (Human), UniProt P16234, V561D); assay: Kinase inhibition assay (KinaseProfiler, 33P-ATP); assay type: biochemical; settings: PDGFRα(V561D)(h), read-out: The percentage of the remaining active protein
CHK2(R145W)(h) = CHK2(R145W)(h) (Homo sapiens (Human), UniProt O96017, R145W); assay: Kinase inhibition assay (KinaseProfiler, 33P-ATP); assay type: biochemical; settings: read-out: The percentage of the remaining active protein
CDK3/cyclinE(h) = CDK3/cyclinE(h) (Homo sapiens (Human), UniProt Q00526); assay: Kinase inhibition assay (KinaseProfiler, 33P-ATP); assay type: biochemical; settings: read-out: The percentage of the remaining active protein
[3] = target: PI3 Kinase (p110a(E545K)/p85a)(m) (Mus musculus (Mouse), UniProt P42337, E545K); assay: Kinase inhibition assay (KinaseProfiler, 33P-ATP); assay type: biochemical; settings: read-out: The percentage of the remaining active protein
Chain of PI3 Kinase (p110a(E545K)/p85a)(m) (P42337 whole entry E545K): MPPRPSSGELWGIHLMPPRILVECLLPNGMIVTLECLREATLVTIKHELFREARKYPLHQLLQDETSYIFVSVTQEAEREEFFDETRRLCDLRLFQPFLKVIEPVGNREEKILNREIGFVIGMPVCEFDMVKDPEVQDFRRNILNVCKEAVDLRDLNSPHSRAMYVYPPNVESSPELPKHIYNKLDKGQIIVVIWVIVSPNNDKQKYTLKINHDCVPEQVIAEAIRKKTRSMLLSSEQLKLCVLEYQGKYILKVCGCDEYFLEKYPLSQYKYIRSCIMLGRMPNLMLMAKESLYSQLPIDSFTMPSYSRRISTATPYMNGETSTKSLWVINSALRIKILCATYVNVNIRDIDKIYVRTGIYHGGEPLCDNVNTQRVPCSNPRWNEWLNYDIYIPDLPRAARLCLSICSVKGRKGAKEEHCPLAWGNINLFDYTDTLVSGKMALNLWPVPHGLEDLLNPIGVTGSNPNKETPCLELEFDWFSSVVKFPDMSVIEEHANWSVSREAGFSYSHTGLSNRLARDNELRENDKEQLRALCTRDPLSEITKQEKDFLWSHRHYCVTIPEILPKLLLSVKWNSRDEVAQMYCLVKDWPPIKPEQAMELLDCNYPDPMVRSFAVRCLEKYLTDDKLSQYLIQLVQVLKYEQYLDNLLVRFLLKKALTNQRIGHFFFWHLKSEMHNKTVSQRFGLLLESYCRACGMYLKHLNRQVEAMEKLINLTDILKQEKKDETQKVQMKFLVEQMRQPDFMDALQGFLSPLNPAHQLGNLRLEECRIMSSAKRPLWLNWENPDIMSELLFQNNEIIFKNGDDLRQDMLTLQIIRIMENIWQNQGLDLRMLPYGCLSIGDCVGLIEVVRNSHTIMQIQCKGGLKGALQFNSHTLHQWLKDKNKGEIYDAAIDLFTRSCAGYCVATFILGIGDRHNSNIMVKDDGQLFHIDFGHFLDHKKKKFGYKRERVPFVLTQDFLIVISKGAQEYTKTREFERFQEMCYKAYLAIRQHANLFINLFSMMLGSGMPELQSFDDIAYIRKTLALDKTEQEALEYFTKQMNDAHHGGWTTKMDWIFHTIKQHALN
Chain of PI3 Kinase (p110a(E545K)/p85a)(m) (P26450 whole entry partner): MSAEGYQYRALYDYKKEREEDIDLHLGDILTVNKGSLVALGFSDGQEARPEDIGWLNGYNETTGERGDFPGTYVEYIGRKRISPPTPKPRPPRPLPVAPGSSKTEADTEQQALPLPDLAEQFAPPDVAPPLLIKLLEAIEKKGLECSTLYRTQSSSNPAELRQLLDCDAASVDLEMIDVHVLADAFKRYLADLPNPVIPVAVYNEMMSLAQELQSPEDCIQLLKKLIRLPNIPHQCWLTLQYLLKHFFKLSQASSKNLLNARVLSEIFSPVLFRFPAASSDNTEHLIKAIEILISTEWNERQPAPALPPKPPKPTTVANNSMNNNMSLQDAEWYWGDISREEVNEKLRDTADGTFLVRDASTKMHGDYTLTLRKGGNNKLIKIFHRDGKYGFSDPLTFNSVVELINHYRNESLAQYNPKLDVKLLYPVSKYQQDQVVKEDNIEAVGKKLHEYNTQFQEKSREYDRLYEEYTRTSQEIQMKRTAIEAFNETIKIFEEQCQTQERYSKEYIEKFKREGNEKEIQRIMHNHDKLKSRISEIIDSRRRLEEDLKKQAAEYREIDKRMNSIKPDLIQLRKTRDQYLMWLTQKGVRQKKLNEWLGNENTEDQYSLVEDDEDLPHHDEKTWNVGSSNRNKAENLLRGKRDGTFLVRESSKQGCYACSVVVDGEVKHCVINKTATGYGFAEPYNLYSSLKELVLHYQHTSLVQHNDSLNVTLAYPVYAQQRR

cSRC(h) = cSRC(h) (Homo sapiens (Human), UniProt P12931); assay: Kinase inhibition assay (KinaseProfiler, 33P-ATP); assay type: biochemical; settings: 10 μM, read-out: The percentage of the remaining active protein
Chain of cSRC(h) (P12931 whole entry, looked up): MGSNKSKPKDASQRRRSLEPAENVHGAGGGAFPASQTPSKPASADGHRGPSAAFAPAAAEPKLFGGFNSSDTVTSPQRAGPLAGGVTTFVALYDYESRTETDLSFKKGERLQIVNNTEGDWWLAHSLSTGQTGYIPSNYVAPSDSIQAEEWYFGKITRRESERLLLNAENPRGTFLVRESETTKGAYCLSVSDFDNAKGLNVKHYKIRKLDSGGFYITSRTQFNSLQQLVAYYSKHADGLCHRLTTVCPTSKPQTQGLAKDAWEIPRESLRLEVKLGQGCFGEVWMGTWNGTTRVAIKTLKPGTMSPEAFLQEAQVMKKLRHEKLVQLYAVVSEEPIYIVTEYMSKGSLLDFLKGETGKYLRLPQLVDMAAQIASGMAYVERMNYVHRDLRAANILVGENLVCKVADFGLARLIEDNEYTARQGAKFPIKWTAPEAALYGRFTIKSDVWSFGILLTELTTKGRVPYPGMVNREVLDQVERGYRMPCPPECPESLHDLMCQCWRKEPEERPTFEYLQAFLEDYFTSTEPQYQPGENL

TSSK1(h) = TSSK1(h) (Homo sapiens (Human), UniProt Q9BXA7); assay: Kinase inhibition assay (KinaseProfiler, 33P-ATP); assay type: biochemical; settings: read-out: The percentage of the remaining active protein
DRAK1(h) = DRAK1(h) (Homo sapiens (Human), UniProt Q9UEE5); assay: Kinase inhibition assay (KinaseProfiler, 33P-ATP); assay type: biochemical; settings: read-out: The percentage of the remaining active protein

SMILES: CCn1nc(C#Cc2cc(C(=O)Nc3ccc(CN4CCN(C)CC4)c(C(F)(F)F)c3)ccc2C)c2c(N)ncnc21 [Compound 3]
pIC50 (HBL-1): ~5.00

remaining activity at 10 µM (FGFR4(h)): 33%
remaining activity at 10 µM (SAPK2a): 3%
remaining activity at 10 µM [1]: 78%
remaining activity at 10 µM (Aurora-A(h)): 64%
remaining activity at 10 µM (Met(Y1248C)(h)): 139%
remaining activity at 10 µM (PIP5K1a(h)): 102%
remaining activity at 10 µM (Ret (V804L)(h)): 1%
remaining activity at 10 µM (Wee1(h)): 95%
remaining activity at 10 µM (CK2(h)): 105%
remaining activity at 10 µM (EphA5): -1%
remaining activity at 10 µM (MST3(h)): 114%
remaining activity at 10 µM (Fgr): 2%
remaining activity at 10 µM (Abl (Q252H)(h)): 2%
remaining activity at 10 µM (Hck): 0%
remaining activity at 10 µM (CDK2/cyclinE(h)): 102%
remaining activity at 10 µM (MARK1(h)): 94%
remaining activity at 10 µM (ASK1(h)): 127%
remaining activity at 10 µM (GCK(h)): 49%
remaining activity at 10 µM (AMPKα2(h)): 90%
remaining activity at 10 µM [2]: 89%
remaining activity at 10 µM (LKB1(h)): 94%
pIC50 (DU145): < 5.00
remaining activity at 10 µM (CaMKIIβ(h)): 85%
remaining activity at 10 µM (TSSK2(h)): 96%
remaining activity at 10 µM (PKCζ(h)): 99%
remaining activity at 10 µM (PKCβII(h)): 99%
remaining activity at 10 µM (PDGFRα (V561D)): 0%
remaining activity at 10 µM (CHK2(R145W)(h)): 102%
remaining activity at 10 µM (CDK3/cyclinE(h)): 93%
remaining activity at 10 µM [3]: 87%
remaining activity at 10 µM (cSRC(h)): 0%
remaining activity at 10 µM (TSSK1(h)): 100%
remaining activity at 10 µM (DRAK1(h)): 140%
SMILES: Cc1ccc(NC(=O)c2ccc(C)c(C(F)(F)F)c2)cc1C#Cc1nn([C@H]2CC[C@H](O)CC2)c2ncnc(N)c12 [Compound 93]
